Drawing on PubChem BioAssay AID651578 (Southern Research Specialized Biocontainment Screening …, 2012), this text covers log virus titer change for four compounds.

The test system of this assay is VEEV TC-83 virus titer reduction in cells. Briefly: VEEV TC-83 titer reduction, cell-based, secondary screen, TC-83 strain, set 4 (AID 651578). The note with it: at 5 µM; active compounds read low.

Active and inactive are the calls of the source. How the calls were made is not given here.

As to `O=c1c2cc([N+](=O)[O-])ccc2nc(CN2CCNCC2)n1-c1ccsc1`, the log virus titer change is -0.997 (inactive). Then `COc1ccc(-n2c(CN3CCNCC3)nc3ccc([N+](=O)[O-])cc3c2=O)cc1`, with -7.41.

`CCN1CCN(Cc2nc3ccc([N+](=O)[O-])cc3c(=O)n2-c2ccccc2F)CC1`: the log virus titer change is -3.36.

Regarding `COc1cccc(-n2c(CN3CCNCC3)nc3ccc([N+](=O)[O-])cc3c2=O)c1`, the log virus titer change was -0.354 (inactive).
